ChEMBL document CHEMBL5352470, “RS6077 induces mitotic arrest and selectively activates cell death in human cancer cell lines and in a lymphoma tumor in vivo” (Eur J Med Chem, 2023)

Key:
HeLa [1] = test: Induction of cell cycle arrest in human HeLa cells assessed as accumulation of cells at G2/M phase at 1000 nM incubated for 72 hrs by annexin V-FITC and PI staining based flow cytometry analysis; format: functional
AHH-1 [2] = test: Induction of cell cycle arrest in human AHH-1 cells assessed as accumulation of cells at S phase at 1000 nM incubated for 72 hrs by annexin V-FITC and PI staining based flow cytometry analysis; format: functional
[3] = Toxicity in human T cells derived from human PBMC assessed as late apoptotic cells at 1 uM measured for 72 hrs by annexin V-FITC and PI staining based flow cytometry analysis (reference value: 11.5 to 17.6%); details: t-cell
[4] = Toxicity in human T cells derived from human PBMC assessed as viable cells at 1 uM measured for 72 hrs by annexin V-FITC and PI staining based flow cytometry analysis (reference value: 66.5 to 77.5 %); format: cell-based, T-cell; details: read-out: Activity
[5] = Toxicity in human T cells derived from human PBMC assessed as early apoptotic cells at 1 uM measured for 48 hrs by annexin V-FITC and PI staining based flow cytometry analysis (reference value: 6.75 to 8.22 %); details: t-cell
KARPAS-422 = test: Antiproliferative activity against human KARPAS-422 cells assessed as inhibition of cell growth measured for 72 hrs by MTT assay; format: functional, cell-based; details: KARPAS-422, 72 h
Z-138 = test: Antiproliferative activity against human Z138 cells assessed as inhibition of cell growth measured for 72 hrs by MTT assay; format: functional, cell-based; details: Z-138, 72 h
[6] = Metabolic stability in human liver microsome assessed as half life measured upto 60 mins by LC-MS/MS analysis; format: ADME; details: liver microsomes
[7] = Metabolic stability in mouse liver microsome assessed as intrinsic clearance measured upto 60 mins by LC-MS/MS analysis; format: ADME; details: liver microsomes, read-out: CLH
TERT-RPE1 [8] = test: Antiproliferative activity against human TERT-RPE1 cells assessed as inhibition of cell growth measured for 48 hrs by MTT assay; format: functional, cell-based; details: RPE-1, 48 h
[9] = Toxicity in human T cells derived from human PBMC assessed as necrotic cells at 1 uM measured for 72 hrs by annexin V-FITC and PI staining based flow cytometry analysis (reference value: 0.48 to 0.56 %); details: t-cell
U2932 = test: Antiproliferative activity against human U2932 cells assessed as inhibition of cell growth measured for 72 hrs by MTT assay; format: functional, cell-based; details: U2932, 72 h
[10] = Toxicity in human T cells derived from human PBMC assessed as viable cells at 1 uM measured for 48 hrs by annexin V-FITC and PI staining based flow cytometry analysis (reference value: 77.5 to 79.5 %); format: cell-based, T-cell; details: read-out: Activity
[11] = Selectivity ratio of IC50 for human TERT-RPE1 cells to IC50 for human AHH-1 cells; format: functional
TERT-RPE1 [12] = test: Induction of cell cycle arrest in human TERT-RPE1 cells assessed as accumulation of cells at G2/M phase at 1000 nM incubated for 72 hrs by annexin V-FITC and PI staining based flow cytometry analysis; format: functional
[13] = Toxicity in human T cells derived from human PBMC assessed as late apoptotic cells at 1 uM measured for 48 hrs by annexin V-FITC and PI staining based flow cytometry analysis (reference value: 13.5 to […] %); details: t-cell
[14] = Toxicity in human T cells derived from human PBMC assessed as necrotic cells at 0.1 uM measured for 48 hrs by annexin V-FITC and PI staining based flow cytometry analysis (reference value: 0.31 to 0.48 %); details: t-cell
[15] = Toxicity in human T cells derived from human PBMC assessed as late apoptotic cells at 2.5 uM measured for 72 hrs by annexin V-FITC and PI staining based flow cytometry analysis (reference value: 11.5 to 17.6%); details: t-cell
TERT-RPE1 [16] = test: Induction of cell cycle arrest in human TERT-RPE1 cells assessed as accumulation of cells at S phase at 2500 nM incubated for 72 hrs by annexin V-FITC and PI staining based flow cytometry analysis; format: functional
[17] = Toxicity in human T cells derived from human PBMC assessed as viable cells at 0.1 uM measured for 48 hrs by annexin V-FITC and PI staining based flow cytometry analysis (reference value: 77.5 to 79.5 %); format: cell-based, T-cell; details: read-out: Activity
HeLa [18] = test: Induction of cell cycle arrest in human HeLa cells assessed as accumulation of cells at G1 phase at 2500 nM incubated for 72 hrs by annexin V-FITC and PI staining based flow cytometry analysis; format: functional
Maver1 = test: Antiproliferative activity against human MAVER-1 cells assessed as inhibition of cell growth measured for 72 hrs by MTT assay; format: functional, cell-based; details: Maver1, 72 h
[19] = Toxicity in human T cells derived from human PBMC assessed as early apoptotic cells at 2.5 uM measured for 72 hrs by annexin V-FITC and PI staining based flow cytometry analysis (reference value: 9.70 to […]); details: t-cell
TERT-RPE1 [20] = test: Induction of cell cycle arrest in human TERT-RPE1 cells assessed as accumulation of cells at G1 phase at 2500 nM incubated for 72 hrs by annexin V-FITC and PI staining based flow cytometry analysis; format: functional
TERT-RPE1 [21] = test: Induction of cell cycle arrest in human TERT-RPE1 cells assessed as accumulation of cells at G1 phase at 1000 nM incubated for 72 hrs by annexin V-FITC and PI staining based flow cytometry analysis; format: functional
HeLa [22] = test: Induction of cell cycle arrest in human HeLa cells assessed as accumulation of cells at S phase at 100 nM incubated for 72 hrs by annexin V-FITC and PI staining based flow cytometry analysis; format: functional
HeLa [23] = test: Induction of cell cycle arrest in human HeLa cells assessed as accumulation of cells at G1 phase at 1000 nM incubated for 72 hrs by annexin V-FITC and PI staining based flow cytometry analysis; format: functional
TERT-RPE1 [24] = test: Induction of cell cycle arrest in human TERT-RPE1 cells assessed as accumulation of cells at G2/M phase at 2500 nM incubated for 72 hrs by annexin V-FITC and PI staining based flow cytometry analysis; format: functional
TERT-RPE1 [25] = test: Induction of cell cycle arrest in human TERT-RPE1 cells assessed as accumulation of cells at G2/M phase at 100 nM incubated for 72 hrs by annexin V-FITC and PI staining based flow cytometry analysis; format: functional
[26] = Toxicity in human T cells derived from human PBMC assessed as viable cells at 0.1 uM measured for 72 hrs by annexin V-FITC and PI staining based flow cytometry analysis (reference value: 66.5 to 77.5 %); format: cell-based, T-cell; details: read-out: Activity
AHH-1 [27] = test: Induction of cell cycle arrest in human AHH-1 cells assessed as accumulation of cells at G1 phase at 2500 nM incubated for 72 hrs by annexin V-FITC and PI staining based flow cytometry analysis; format: functional
[28] = Toxicity in human T cells derived from human PBMC assessed as necrotic cells at 0.1 uM measured for 72 hrs by annexin V-FITC and PI staining based flow cytometry analysis (reference value: 0.48 to 0.56 %); details: t-cell
[29] = Toxicity in human T cells derived from human PBMC assessed as early apoptotic cells at 2.5 uM measured for 48 hrs by annexin V-FITC and PI staining based flow cytometry analysis (reference value: 6.75 to 8.22 %); details: t-cell

**Q.** Which Activity (HeLa [1]) does the source give for `COc1cc(C(=O)c2ccn(-c3ncnc4[nH]ccc34)c2)cc(OC)c1OC` here?
**A.** 33.8%

**Q.** And the Activity (AHH-1 [2])?
**A.** 18.4%

**Q.** And the Activity [3]?
**A.** 12%

**Q.** And the viability at 72 h, 1 µM [4]?
**A.** 64.7%

**Q.** And the Activity [5]?
**A.** 6.49%

**Q.** And the IC50 (KARPAS-422)?
**A.** 36.3 nM

**Q.** And the IC50 (Z-138)?
**A.** 23.6 nM

**Q.** What about the half-life [6] of the same molecule?
**A.** 50.5 min

**Q.** What about the microsomal CLint [7] of the same molecule?
**A.** 96 µL/min/mg

**Q.** What about the IC50 (TERT-RPE1 [8]) of the same molecule?
**A.** 101 nM

**Q.** What about the Activity [9] of the same molecule?
**A.** 0.41%

**Q.** And the IC50 (U2932)?
**A.** 21 nM

**Q.** And the viability at 48 h, 1 µM [10]?
**A.** 74.9%

**Q.** And the “Ratio IC50” value [11]?
**A.** 6.2

**Q.** And the Activity (TERT-RPE1 [12])?
**A.** 82.7%

**Q.** What about the Activity [13] of the same molecule?
**A.** 12.7%

**Q.** What about the Activity [14] of the same molecule?
**A.** 0.28%

**Q.** What about the Activity [15] of the same molecule?
**A.** 12.7%

**Q.** What about the Activity (TERT-RPE1 [16]) of the same molecule?
**A.** 7.3%

**Q.** What about the viability at 48 h, 0.1 µM [17] of the same molecule?
**A.** 75.4%

**Q.** What about the Activity (HeLa [18]) of the same molecule?
**A.** 17%

**Q.** What about the IC50 (Maver1) of the same molecule?
**A.** 63.1 nM

**Q.** What about the Activity [19] of the same molecule?
**A.** 10.3%

**Q.** What about the Activity (TERT-RPE1 [20]) of the same molecule?
**A.** 17.6%

**Q.** What about the Activity (TERT-RPE1 [21]) of the same molecule?
**A.** 13.3%

**Q.** What about the Activity (HeLa [22]) of the same molecule?
**A.** 43.2%

**Q.** And the Activity (HeLa [23])?
**A.** 22.2%

**Q.** And the Activity (TERT-RPE1 [24])?
**A.** 72.7%

**Q.** And the Activity (TERT-RPE1 [25])?
**A.** 83%

**Q.** And the viability at 72 h, 0.1 µM [26]?
**A.** 68.1%

**Q.** What about the Activity (AHH-1 [27]) of the same molecule?
**A.** 9.8%

**Q.** What about the Activity [28] of the same molecule?
**A.** 0.48%

**Q.** And the Activity [29]?
**A.** 7.06%
